Where two headings read alike, the source gives them in different places.

In test [1] the target is T1, Glycogen Synthase Kinase-3 (beta isoform) (Oryctolagus cuniculus, UniProt G1T8E2).
T1 construct: purchased New England Biolabs 6040; host or cells: E. coli
As to the kind of experiment: Kinase Selectivity Assay Glycogen Synthase Kinase-3. The class given is biochemical, rabbit. The procedure: (§1) Assays to test compound inhibition of other kinases were preformed using methods that measure the amount of phosphorylation of a biotinylated peptide substrate. Biotinylated peptide substrates were selected from the literature as appropriate for the enzyme being evaluated. […] Assay conditions vary slightly for each protein kinase, for example, insulin receptor kinase requires 10 mM MnCl2 for activity and Calmodulin-dependent protein kinase requires calmodulin and 10 mM CaCl2. These assay conditions are known in the art. The reaction mixture was dispensed into the wells of a streptavidin coated Flashplate and 1 μl drug stock in 100% DMSO was added to a 100 μl reaction volume resulting in a final concentration of 1% DMSO on the reaction. Enzyme was diluted in 50 mM Tris-HCl pH=8.0, 0.1% BSA and add to each well. The reaction was incubated for one hour at 30° C. in the presence of compound. After one hour the reaction mix was aspirated from the plate and the plate was washed with PBS containing 100 mM EDTA. The plate was read on a scintillation counter to determine ^33P-γ-ATP incorporated into the immobilized peptide. Test compounds were assayed in duplicate at 8 concentrations [100 uM, 10 uM, 1 uM, 100 nM, 10 nM, 1 nM, 100 pM, 10 pM]. A maximum and minimum signal for the assay was determined on each plate. The IC50 was calculated from the dose response curve of the percent inhibition of the maximum signal in the assay according to the formula [max signal—background/test compound signal—background (100)=% inhibition] by graphing the percent inhibition against the log concentration of test compound. Known inhibitor compounds appropriate for the kinase being assayed were also included on each plate.
(§2) CDK2 in complex with cyclin A is commercially available (Upstate Biotech, Lake Placid, N.Y.). The CDK4 complex was composed of a mouse CDK4 protein and a mouse Cyclin D1 protein (The mouse CDK4 protein was genetically fused to an N-terminal Flag-epitope tag and the mouse Cyclin D1 protein was fused with an N-terminal AU-1 epitope tag. The genes encoding these proteins were transferred to commercially available baculoviral vectors. The recombinant CDK4/D1 complex was then made by co-infecting commercially available insect cells with viruses carrying these two constructs). […] ERK-1 protein (Discontinued from Calbiochem). EGFR (epidermal growth factor receptor) is purified from human A431 cell membranes (Sigma, St. Louis, Mo., Cat.# E3641).

Test [2] concerns the target T2, MAP Kinase (ERK-2 isoform) (Rattus norvegicus, UniProt P63086).
T2 construct: polyhistidine (N); host or cells: E. coli
As to the kind of experiment: Kinase Selectivity Assay MAP Kinase (ERK-2). The class given is biochemical. The method, then: as §1, §2

Test [3] concerns the target T3, VEGF-R (vascular endothelial growth factor receptor-2) (Rattus norvegicus, UniProt O08775).
T3 construct: polyhistidine (6xHIS) (N)
Kind of test: VEGF-R Screening Assay. The class given is biochemical. Particulars: read-out: VEGF-R IC50.

Test [4] addresses T4, PDGF-R (platelet derived growth factor receptor) beta subunit kinase domain (Homo sapiens, UniProt P09619).
T4 construct: nucleotides 1874-3507 of the human PDGF-R beta subunit kinase domain; polyhistidine (N)
As to the kind of experiment: Kinase Selectivity Assay PDGF-R. The format is biochemical. The procedure:
as §1, §2

A further test has as its target T5, CDK1:Cyclin-B (Homo sapiens, UniProt P06493).
T5 construct: purchased New England Biolabs 6020; host or cells: insect cells
As to the kind of experiment: CDK1 Screening Assay. The class given is biochemical. Particulars: read-out: CDK1 IC50. The method in brief: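 Human CDK1:cyclin-B (30 ng/well) with biotinylated histone-H1 peptide and ^33P-γ-ATP, 1 h at 30° C, 1% DMSO, on streptavidin FlashPlate; incorporation read by scintillation.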

The target of test [5] is T6, Casein Kinase 2 (alpha and beta subunits) (Homo sapiens, UniProt P68400).
T6 construct: purchased New England Biolabs 6010; host or cells: E. coli
As to the kind of experiment: Kinase Selectivity Assay Casein Kinase 2. The format is biochemical. Particulars: Kinase Selectivity, Tables 2a-2k; read-out: Caseine Kinase 2 IC50. The procedure: as §1, §2

Test [6] has as its target T7, HER2 (human epidermal growth factor receptor-2) (Homo sapiens, UniProt P04626).
T7 construct: begins at amino acid 676 followed by the remainder of the HER2 cytoplasmic domain; polyhistidine (N)
As to the kind of experiment: Kinase Selectivity Assay HER2. The format is biochemical. The method, then:
as §1, §2

The mark [7] stands for this setting: Kinase Selectivity, Tables 2a-2k.
Setting [8] is: Kinase Selectivity, Tables 2a-2k, read-out: GSK-3 IC50.
The mark [9] stands for this setting: Kinase Selectivity, Tables 2a-2k, read-out: PDGF-R kinase IC50.
Setting [10] is: Kinase Selectivity, Tables 2a-2k, read-out: HER2 Kinase IC50.

T7 sequence (P04626 676-1255 limits assumed): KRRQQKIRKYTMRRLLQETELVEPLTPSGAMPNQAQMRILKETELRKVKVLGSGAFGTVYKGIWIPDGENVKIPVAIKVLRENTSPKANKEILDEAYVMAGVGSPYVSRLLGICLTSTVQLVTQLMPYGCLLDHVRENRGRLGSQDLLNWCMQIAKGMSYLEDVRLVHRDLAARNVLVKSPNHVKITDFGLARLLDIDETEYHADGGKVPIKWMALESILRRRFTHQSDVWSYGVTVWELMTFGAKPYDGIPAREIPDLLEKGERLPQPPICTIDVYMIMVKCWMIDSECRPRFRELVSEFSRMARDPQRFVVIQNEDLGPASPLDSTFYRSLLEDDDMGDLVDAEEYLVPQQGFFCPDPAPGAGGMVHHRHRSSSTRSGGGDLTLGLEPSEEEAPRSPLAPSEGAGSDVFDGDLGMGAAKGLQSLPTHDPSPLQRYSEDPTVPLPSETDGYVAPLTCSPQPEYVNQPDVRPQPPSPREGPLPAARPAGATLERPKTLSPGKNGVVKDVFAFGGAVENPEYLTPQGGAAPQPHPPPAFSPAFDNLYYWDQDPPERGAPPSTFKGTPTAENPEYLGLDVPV
T3 sequence (O08775 786-1343): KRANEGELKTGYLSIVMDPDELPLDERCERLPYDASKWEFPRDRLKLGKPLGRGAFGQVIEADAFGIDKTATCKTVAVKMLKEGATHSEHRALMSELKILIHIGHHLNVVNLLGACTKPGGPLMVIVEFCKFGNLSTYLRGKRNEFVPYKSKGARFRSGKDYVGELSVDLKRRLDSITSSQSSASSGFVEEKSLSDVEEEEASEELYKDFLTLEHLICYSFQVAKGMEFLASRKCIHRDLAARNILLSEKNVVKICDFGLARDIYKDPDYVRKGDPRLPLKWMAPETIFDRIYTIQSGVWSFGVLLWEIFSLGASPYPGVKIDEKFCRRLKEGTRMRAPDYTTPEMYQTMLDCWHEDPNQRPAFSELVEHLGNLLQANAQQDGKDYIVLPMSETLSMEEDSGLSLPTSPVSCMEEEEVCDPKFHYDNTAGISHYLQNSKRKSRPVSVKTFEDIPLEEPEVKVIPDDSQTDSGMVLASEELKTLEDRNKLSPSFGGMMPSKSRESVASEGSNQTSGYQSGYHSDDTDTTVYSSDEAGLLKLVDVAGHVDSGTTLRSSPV
T5 sequence (P06493 whole entry): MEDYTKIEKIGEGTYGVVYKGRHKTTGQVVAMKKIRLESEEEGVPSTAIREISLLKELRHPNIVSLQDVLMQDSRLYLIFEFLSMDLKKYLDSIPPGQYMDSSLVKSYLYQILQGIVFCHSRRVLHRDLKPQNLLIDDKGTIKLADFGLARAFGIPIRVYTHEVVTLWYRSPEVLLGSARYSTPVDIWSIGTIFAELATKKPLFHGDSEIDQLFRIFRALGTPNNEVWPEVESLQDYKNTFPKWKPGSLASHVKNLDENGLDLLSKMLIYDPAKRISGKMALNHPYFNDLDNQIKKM
T5 sequence (P14635 whole entry partner): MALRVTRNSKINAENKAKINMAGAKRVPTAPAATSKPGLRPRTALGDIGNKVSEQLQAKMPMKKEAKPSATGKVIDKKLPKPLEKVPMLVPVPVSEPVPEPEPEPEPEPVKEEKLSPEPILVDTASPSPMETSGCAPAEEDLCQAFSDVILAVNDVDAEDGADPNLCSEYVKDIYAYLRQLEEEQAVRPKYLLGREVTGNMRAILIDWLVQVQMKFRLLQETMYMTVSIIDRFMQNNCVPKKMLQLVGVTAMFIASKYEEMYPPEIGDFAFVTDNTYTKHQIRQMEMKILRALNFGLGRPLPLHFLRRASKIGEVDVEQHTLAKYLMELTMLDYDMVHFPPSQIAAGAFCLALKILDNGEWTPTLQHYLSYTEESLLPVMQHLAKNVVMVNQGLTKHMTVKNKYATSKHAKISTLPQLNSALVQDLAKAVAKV
T1 sequence (G1T8E2 1-432): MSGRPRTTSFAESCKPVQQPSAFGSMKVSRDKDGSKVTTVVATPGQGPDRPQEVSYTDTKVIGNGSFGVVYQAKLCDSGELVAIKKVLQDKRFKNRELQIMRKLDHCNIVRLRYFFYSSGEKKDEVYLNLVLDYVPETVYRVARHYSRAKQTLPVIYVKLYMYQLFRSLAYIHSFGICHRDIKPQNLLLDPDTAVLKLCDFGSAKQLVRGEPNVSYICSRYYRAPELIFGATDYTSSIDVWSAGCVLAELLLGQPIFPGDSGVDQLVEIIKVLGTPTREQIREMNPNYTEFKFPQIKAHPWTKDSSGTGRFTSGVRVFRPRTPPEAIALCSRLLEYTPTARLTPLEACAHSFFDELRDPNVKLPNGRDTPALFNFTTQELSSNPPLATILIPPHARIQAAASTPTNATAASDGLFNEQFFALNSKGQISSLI
T4 sequence (P09619 564-1106): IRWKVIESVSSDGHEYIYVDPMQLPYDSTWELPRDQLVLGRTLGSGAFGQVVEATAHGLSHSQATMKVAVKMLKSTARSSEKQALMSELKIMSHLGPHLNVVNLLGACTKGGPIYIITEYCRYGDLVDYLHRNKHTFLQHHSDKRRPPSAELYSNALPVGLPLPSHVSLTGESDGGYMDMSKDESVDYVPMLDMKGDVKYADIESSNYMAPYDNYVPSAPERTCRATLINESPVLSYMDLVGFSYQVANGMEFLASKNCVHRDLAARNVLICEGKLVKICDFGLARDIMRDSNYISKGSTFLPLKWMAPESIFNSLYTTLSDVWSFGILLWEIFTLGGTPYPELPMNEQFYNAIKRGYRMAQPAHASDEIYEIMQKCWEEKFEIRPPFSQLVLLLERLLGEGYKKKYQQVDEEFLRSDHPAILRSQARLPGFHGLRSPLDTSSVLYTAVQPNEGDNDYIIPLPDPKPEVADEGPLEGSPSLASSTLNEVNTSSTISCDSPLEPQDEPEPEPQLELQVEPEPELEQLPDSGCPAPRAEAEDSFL
T6 sequence (P68400 whole entry): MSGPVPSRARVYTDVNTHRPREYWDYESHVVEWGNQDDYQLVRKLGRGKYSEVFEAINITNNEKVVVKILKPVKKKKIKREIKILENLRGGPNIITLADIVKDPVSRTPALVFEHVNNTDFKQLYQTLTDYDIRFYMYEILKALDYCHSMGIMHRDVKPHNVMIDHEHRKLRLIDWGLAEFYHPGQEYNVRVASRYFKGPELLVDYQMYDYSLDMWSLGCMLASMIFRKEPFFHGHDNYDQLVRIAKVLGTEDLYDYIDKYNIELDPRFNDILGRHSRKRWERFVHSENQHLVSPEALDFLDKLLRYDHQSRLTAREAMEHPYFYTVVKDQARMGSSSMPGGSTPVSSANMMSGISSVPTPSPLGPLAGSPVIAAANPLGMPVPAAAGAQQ
T6 sequence (P67870 whole entry partner): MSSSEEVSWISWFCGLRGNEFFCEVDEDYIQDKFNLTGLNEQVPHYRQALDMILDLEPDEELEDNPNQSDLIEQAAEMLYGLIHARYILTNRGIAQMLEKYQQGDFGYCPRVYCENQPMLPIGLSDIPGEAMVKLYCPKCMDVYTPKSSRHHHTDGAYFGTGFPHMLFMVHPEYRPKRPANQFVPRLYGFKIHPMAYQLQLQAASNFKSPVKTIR
T2 sequence (P63086 whole entry, canonical isoform): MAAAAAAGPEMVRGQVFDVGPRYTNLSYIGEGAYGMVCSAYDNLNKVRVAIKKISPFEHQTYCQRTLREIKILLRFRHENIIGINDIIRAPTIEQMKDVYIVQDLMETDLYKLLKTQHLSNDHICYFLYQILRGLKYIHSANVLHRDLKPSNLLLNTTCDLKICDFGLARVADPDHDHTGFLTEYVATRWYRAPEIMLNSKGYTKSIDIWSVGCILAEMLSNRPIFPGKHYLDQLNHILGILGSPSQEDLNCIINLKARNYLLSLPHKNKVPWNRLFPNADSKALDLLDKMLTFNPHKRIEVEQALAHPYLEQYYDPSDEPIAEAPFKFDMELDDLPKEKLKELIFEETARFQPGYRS

In general, IC50 refers to the concentration that inhibits the measured activity by half. Consider `Cc1ccc(F)c(C(=O)n2nc(Nc3ccc(S(N)(=O)=O)cc3)nc2N)c1F` [Cpd 2, 4-[[5-amino-1-(2,6-difluoro-3-methylbenzoyl)-1H-1,2,4-triazol-3-yl]amino]-benzenesulfonamide], for which the IC50 in test [1] amounted to 31 nM; in test [2], 9480 nM; in test [3] (setting [7]), 366 nM; in test [3] (Table 1), 366 nM; in test [4], 10700 nM; at CDK1:Cyclin-B (setting [7]), 3 nM. The IC50 at CDK1:Cyclin-B (Table 1) stood at 3.2 nM.
For the compound `Cc1ccsc1C(=O)n1nc(Nc2ccc(S(N)(=O)=O)cc2)nc1N` [Cpd 15, 4-[[5-amino-1-[(3-methyl-2-thienyl)carbonyl]-1H-1,2,4-triazol-3-yl]amino]-benzenesulfonamide], the IC50 is 1.8 nM in test [1] (setting [8]); > 100000 nM in test [5]; 79 nM in test [4] (setting [9]); 4.8 nM on CDK1:Cyclin-B (setting [7]); 4.8 nM on CDK1:Cyclin-B (Table 1).
In the case of `Nc1nc(Nc2ccc(S(N)(=O)=O)cc2)nn1C(=S)Nc1c(F)cccc1F` [Cpd 66, 5-amino-3-[[4-(aminosulfonyl)phenyl]amino]-N-(2,6-difluorophenyl)-1H-1,2,4-triazole-1-carbothioamide], the IC50 is 60 nM in test [6] (setting [10]); 60 nM in test [6] (Table 1, read-out: HER2 IC50); > 100000 nM in test [5]; 1580 nM in test [4] (setting [9]); 0.6 nM at CDK1:Cyclin-B (setting [7]); 0.6 nM on CDK1:Cyclin-B (Table 1).
Consider `Cc1ccc(F)c(C(=O)n2nc(Nc3ccc(S(=O)(=O)N(C)C)cc3)nc2N)c1F` [Cpd 88, 4-[[5-amino-1-(2,6-difluoro-3-methylbenzoyl)-1H-1,2,4-triazol-3-yl]amino]-N,N-dimethyl-benzenesulfonamide], for which the IC50 in test [6] (Table 1, read-out: HER2 IC50) is ~1000 nM; in test [3] (Table 1) it was 965 nM; at CDK1:Cyclin-B (Table 1), 313 nM.
The corresponding values for `CN(C)S(=O)(=O)c1ccc(Nc2nc(N)n(C(=O)c3c(F)cccc3F)n2)cc1` [Cpd 89, 4-[[5-amino-1-(2,6-difluorobenzoyl)-1H-1,2,4-triazol-3-yl]amino]-N,N-dimethyl-benzenesulfonamide] are ~10000 nM, 598 nM and 710 nM.
On to `CCc1ccc(C(=O)n2nc(Nc3ccc(-n4ccnc4)cc3)nc2N)s1` [Cpd 90, 1-[(5-ethyl-2-thienyl)carbonyl]-N^3-[4-(1H-imidazol-1-yl)phenyl]-1H-1,2,4-triazole-3,5-diamine], for which the IC50 was ~100 nM in test [6] (Table 1, read-out: HER2 IC50); ~100 nM in test [3] (Table 1); ~1000 nM at CDK1:Cyclin-B (Table 1).
Consider `Cc1ccsc1C(=O)n1nc(Nc2ccc(-n3ccnc3)cc2)nc1N` [Cpd 91, N^3-[4-(1H-imidazol-1-yl)phenyl]-1-[(3-methyl-2-thienyl)carbonyl]-1H-1,2,4-triazole-3,5-diamine], for which the IC50 was 223 nM in test [6] (Table 1, read-out: HER2 IC50); 73.6 nM in test [3] (Table 1); 335 nM at CDK1:Cyclin-B (Table 1).
With `Nc1nc(Nc2ccc(-n3ccnc3)cc2)nn1C(=O)c1c(F)cccc1F` [Cpd 93, 1-(2,6-difluorobenzoyl)-N^3-[4-(1H-imidazol-1-yl)phenyl]-1H-1,2,4-triazole-3,5-diamine], the IC50 is ~1000 nM in test [6] (Table 1, read-out: HER2 IC50); 727 nM in test [3] (Table 1); 452 nM on CDK1:Cyclin-B (Table 1).
Take `Cc1ccc(F)c(C(=O)n2nc(Nc3ccc(-n4ccnc4)cc3)nc2N)c1F` [Cpd 94, 1-(2,6-difluoro-3-methylbenzoyl)-N^3-[4-(1H-imidazol-1-yl)phenyl]-1H-1,2,4-triazole-3,5-diamine]: the IC50 turned out to be 147 nM in test [6] (Table 1, read-out: HER2 IC50); 409 nM in test [3] (Table 1); 272 nM on CDK1:Cyclin-B (Table 1).
The corresponding values for `Cc1ccc(F)c(C(=O)n2nc(Nc3ccc(-n4cncn4)cc3)nc2N)c1F` [Cpd 95, 1-(2,6-difluoro-3-methylbenzoyl)-N^3-[4-(1H-1,2,4-triazol-1-yl)phenyl]-1H-1,2,4-triazole-3,5-diamine] are 914 nM, 260 nM and 139 nM.
As to `Nc1nc(Nc2ccc(-n3cncn3)cc2)nn1C(=O)c1c(F)cccc1F` [Cpd 96, 1-(2,6-difluorobenzoyl)-N^3-[4-(1H-1,2,4-triazol-1-yl)phenyl]-1H-1,2,4-triazole-3,5-diamine], the IC50 in test [6] (Table 1, read-out: HER2 IC50) came to 1410 nM; in test [3] (Table 1), 817 nM; at CDK1:Cyclin-B (Table 1) it was 373 nM.
Turning to `CCc1ccc(C(=O)n2nc(Nc3ccc(-n4cncn4)cc3)nc2N)s1` [Cpd 97, 1-[(5-ethyl-2-thienyl)carbonyl]-N^3-[4-(1H-1,2,4-triazol-1-yl)phenyl]-1H-1,2,4-triazole-3,5-diamine], the IC50 in test [6] (Table 1, read-out: HER2 IC50) is ~10 nM; in test [3] (Table 1) it was ~100 nM; at CDK1:Cyclin-B (Table 1), ~100 nM.
On to `Cc1cc(C)c(C(=O)n2nc(Nc3ccc(-n4cncn4)cc3)nc2N)s1` [Cpd 98, 1-[(3,5-dimethyl-2-thienyl)carbonyl]-N^3-[4-(1H-1,2,4-triazol-1-yl)phenyl]-1H-1,2,4-triazole-3,5-diamine], for which the IC50 in test [6] (Table 1, read-out: HER2 IC50) is ~100 nM; in test [3] (Table 1), ~100 nM; on CDK1:Cyclin-B (Table 1), > 100 nM.
In the case of `Nc1nc(Nc2ccc(-n3cnnc3)cc2)nn1C(=O)c1c(F)cccc1F` [Cpd 100, 1-(2,6-difluorobenzoyl)-N^3-[4-(4H-1,2,4-triazol-4-yl)phenyl]-1H-1,2,4-triazole-3,5-diamine], the IC50 stood at 1290 nM in test [6] (Table 1, read-out: HER2 IC50); 1100 nM in test [3] (Table 1); 340 nM on CDK1:Cyclin-B (Table 1).
As to `Cc1ccc(F)c(C(=O)n2nc(Nc3ccc(-n4cnnc4)cc3)nc2N)c1F` [Cpd 101, 1-(2,6-difluoro-3-methylbenzoyl)-N^3-[4-(4H-1,2,4-triazol-4-yl)phenyl]-1H-1,2,4-triazole-3,5-diamine], the IC50 in test [6] (Table 1, read-out: HER2 IC50) turned out to be 819 nM; in test [3] (Table 1), 650 nM; on CDK1:Cyclin-B (Table 1), 143 nM.
Regarding `Cc1ccsc1C(=O)n1nc(Nc2ccc(-n3cnnc3)cc2)nc1N` [Cpd 102, 1-[(3-methyl-2-thienyl)carbonyl]-N^3-[4-(4H-1,2,4-triazol-4-yl)phenyl]-1H-1,2,4-triazole-3,5-diamine], the IC50 in test [6] (Table 1, read-out: HER2 IC50) was 2260 nM; in test [3] (Table 1), 1100 nM; on CDK1:Cyclin-B (Table 1) it was 2350 nM.
For the compound `CS(=O)(=O)Nc1ccc(Nc2nc(N)n(C(=O)c3c(F)cccc3F)n2)cc1` [Cpd 111], the IC50 was 16800 nM in test [6] (Table 1, read-out: HER2 IC50); 702 nM in test [3] (Table 1); 150 nM on CDK1:Cyclin-B (Table 1).
In the case of `Cc1ccc(F)c(C(=O)n2nc(Nc3ccc(NS(C)(=O)=O)cc3)nc2N)c1F` [Cpd 112], the IC50 in test [6] (Table 1, read-out: HER2 IC50) came out at 16400 nM; in test [3] (Table 1) it was 704 nM; at CDK1:Cyclin-B (Table 1), 87 nM.
As to `Nc1nc(Nc2cccc(Cl)c2)n(C(=O)c2c(F)cccc2F)n1` [Cpd 126, N^5-(3-chlorophenyl)-1-(2,6-difluorobenzoyl)-1H-1,2,4-triazole-3,5-diamine], the IC50 was ~100000 nM in test [6] (setting [10]), > 100000 nM in test [1] (setting [8]), > 100000 nM in test [3] (setting [7]) and > 100000 nM on CDK1:Cyclin-B (setting [7]).
Regarding `Nc1nc(Nc2cccc(Cl)c2)n(C(=O)c2ccccc2)n1` [Cpd 127, 1-benzoyl-N^5-(3-chlorophenyl)-1H-1,2,4-triazole-3,5-diamine], the IC50 (in test [6] (setting [10]); in test [1] (setting [8]); in test [3] (setting [7]); at CDK1:Cyclin-B (setting [7])) was > 100000 nM each time.

Values taken from patent US6924302B2, “Substituted triazole diamine derivatives as kinase inhibitors” (Ortho McNeil Pharmaceutical, Inc., priority 2000, dated 2005).
